# Reference: article PMC11520566, “Discovery of pyrazole-based analogs as CDK2 inhibitors with apoptotic-inducing activity: design, synthesis and molecular dynamics study” (RSC Advances, 2024)
# Legend:
# CDK2 = test: Western blot of CDK2 expression in HCT-116 cells; assay type: cell-based; conditions: 3 μM, 48 h, vs vehicle treated cells
# Source text: The method of sodium dodecyl sulfate polyacrylamide gel electrophoresis (SDS-PAGE) is employed to separate proteins based on their size. When combined with western blotting (immunoblotting), both techniques are commonly used to identify the presence and/or relative abundance of a specific protein within a sample containing a complex mixture of proteins.[36] In this process, each sample's total protein content is loaded onto a gel and separated by electrophoresis, allowing proteins to migrate through the gel matrix under the influence of an electric current. To facilitate protein migration, the proteins are initially denatured and given a negative charge by exposure to a detergent like SDS. A molecular weight marker with known-sized bands assists in identifying proteins of interest. […] Typically, the secondary antibody is linked to an enzyme that generates luminescence upon reacting with its substrate. The intensity of the luminescence, directly correlating with the amount of protein that interacted with the antibody, is captured by a Bio-Rad Imager.[36] […]
# HCT-116 cells were treated with either 3 μM of compound 4 and 1 μM of compound 9 and incubated 48 h. The cells were lysed by 1× RIPA buffer containing protease and phosphatase inhibitors to quantify the protein concentration by BCA protein assay. […]
# MDA-MB-468 = test: NCI 60 five dose assay, Breast cancer
# KM12 = test: NCI 60 five dose assay, Colon cancer; assay type: cell-based, human
# A549/ATCC = test: NCI 60 five dose assay, Non-small cell lung cancer; assay type: cell-based, human
# SF-268 = test: NCI 60 five dose assay, CNS cancer; assay type: cell-based, human
# HT29 [1] = test: NCI 60 five dose assay, Colon cancer; assay type: cell-based, human
# CDK2/cyclin A2 = target: T1, CDK2/cyclin A2 (Homo sapiens, UniProt P24941); test: In vitro CDK2/cyclin A2 enzyme inhibition assay (ADP-Glo); assay type: biochemical
# T1 construct: purchased Promega
# Description: The studied pyrazoles 2a–g, 4, 7a–d, 8a and b, 9, and 10 were assessed for their in vitro CDK2/cyclin A2 enzyme inhibition assay at a concentration of 50 μM using the Promega CDK2/cyclinA2 kinase enzyme system coupled with the ADP-Glo assay.[32,33] The percentage enzyme activity was the lowest for five compounds, namely 4, 7a, 7d, 8a, and 9 with values of 24.7%, 17.5%, 11.5%, 27.1% and 14.5%, respectively.
# The in vitro assay of CDK2/cyclin A2 protein kinase was carried out on all the synthesized compounds. The kinase assay was performed in a 96-well white plate with a reaction volume of […]. The reaction was performed in four steps as follows: 2.5 μL of the test compounds or 5% DMSO and 5 μL of CDK2/cyclin A2 enzyme (1.6 ng) was added, and then incubated at room temperature for 30 min. Then, 5 μL of 50 μM ATP. 0.1 μg μL^−1 histone H1 was added and incubated for 10 min. The reaction was stopped by adding 12.5 μL of ADP-Glo™ Reagent and incubated for 40 min. Then 25 μL of kinase detection reagent was added to each well and incubated for 60 min before detection with luminescence (Integration time 0.5–1 s).[25,32,33]
# CCRF-CEM = test: NCI 60 five dose assay, Leukemia; assay type: cell-based, human
# HT29 [2] = test: NCI 60 single dose screen, Colon cancer; assay type: cell-based, human; conditions: single dose 10 μM
# Description: The newly synthesized pyrazoles 2a–g, 7a–d, 8a and b, 9, and 10 were submitted to the National Cancer Institute (NCI) Developmental Therapeutics Program (http://www.dtp.nci.nih.gov) for assessment of their potential antiproliferative activity against a panel of NCI 60 cancer cell lines. All compounds were approved for screening against the approved 60 cancer cell lines at a single dose of 10 μM. The human cancer cell lines were derived from 9 variant cancer types including leukemia, melanoma, lung, colon, CNS, ovarian, renal, prostate and breast cancers. The results are presented as percentage of growth inhibition (GI%) of the screened compounds against the full panel of cell lines.
# Under sterile conditions, the cell lines were grown in RPMI 1640 media (Gibco, NY, USA) supplemented with 10% fetal bovine serum (Biocell, CA, USA), and […] cell/mL was used to test the growth inhibition activity of the synthesized compounds. The compounds with concentrations ranging from 0.01 to 100 μM were prepared in phosphate buffer saline. Each compound was initially solubilized in dimethyl sulfoxide (DMSO); however, each final dilution contained less than 1% DMSO. Solutions of different concentrations (0.2 mL) were pipetted into the separate well of a microtiter tray in duplicate. Cell culture (1.8 mL) containing a cell population of […] cells per mL was pipetted into each well. Controls, containing only phosphate buffer saline and DMSO at identical dilutions, were also prepared in the same manner. These cultures were incubated in a humidified incubator at 37 °C. The incubator was supplied with 5% CO2 atmosphere. After 48 h, the cells in each well were diluted 10 times with saline and counted using a Coulter counter. The counts were corrected for the dilution.[34]
# [3] = Homo sapiens, read-out: LC50 (the source's name)
smiles,measurement,setting,value
"CC(=NNc1ccc(S(N)(=O)=O)cc1)c1ccc(NN=C2C(=O)NN=C2Nc2ccccc2)cc1 [Compound 4, 4-(2-(1-(4-(2-(5-oxo-3-(phenylamino)-1,5-dihydro-4H-pyrazol-4-ylidene)hydrazinyl)phenyl)ethylidene)hydrazinyl)benzene sulfonamide]",expression of CDK-2 (western blot),CDK2,inhibitions in the expression of CDK-2
same,GI50,"MDA-MB-468; Homo sapiens, MDA-MB-468",1.4 µM
same,CC50,"MDA-MB-468; Homo sapiens, MDA-MB-468, read-out: LC50",6.41 µM
same,TGI,MDA-MB-468; MDA-MB-468,3 µM
same,GI50,KM12; Homo sapiens,2.66 µM
same,CC50,KM12; [3],29.9 µM
same,Percent Growth,KM12; Log10 Concentration -4.0 Molar,-100%
same,Percent Growth,KM12; Log10 Concentration -5.0 Molar,-5%
same,Percent Growth,KM12; Log10 Concentration -6.0 Molar,90%
same,Percent Growth,KM12; Log10 Concentration -7.0 Molar,101%
same,Percent Growth,KM12; Log10 Concentration -8.0 Molar,98%
same,GI50,A549/ATCC; Homo sapiens,19.4 µM
same,CC50,A549/ATCC; [3],> 100 µM
same,Percent Growth,A549/ATCC; Log10 Concentration -4.0 Molar,7%
same,Percent Growth,A549/ATCC; Log10 Concentration -5.0 Molar,67%
same,Percent Growth,A549/ATCC; Log10 Concentration -6.0 Molar,100%
same,Percent Growth,A549/ATCC; Log10 Concentration -7.0 Molar,108%
same,Percent Growth,A549/ATCC; Log10 Concentration -8.0 Molar,100%
same,GI50,SF-268; Homo sapiens,2.22 µM
same,CC50,SF-268; [3],31.5 µM
same,Percent Growth,SF-268; Log10 Concentration -4.0 Molar,-77%
same,Percent Growth,SF-268; Log10 Concentration -5.0 Molar,-23%
same,Percent Growth,SF-268; Log10 Concentration -6.0 Molar,89%
same,Percent Growth,SF-268; Log10 Concentration -7.0 Molar,95%
same,Percent Growth,SF-268; Log10 Concentration -8.0 Molar,85%
same,GI50,"HT29 [1]; Homo sapiens, HT-29",3.58 µM
same,CC50,"HT29 [1]; Homo sapiens, HT-29, read-out: LC50 (the source's name)",34 µM
same,Percent Growth,HT29 [1]; Log10 Concentration -4.0 Molar,-100%
same,Percent Growth,HT29 [1]; Log10 Concentration -5.0 Molar,7%
same,Percent Growth,HT29 [1]; Log10 Concentration -6.0 Molar,104%
same,Percent Growth,HT29 [1]; Log10 Concentration -7.0 Molar,117%
same,Percent Growth,HT29 [1]; Log10 Concentration -8.0 Molar,100%
same,percentage enzyme activity,CDK2/cyclin A2; at 50 μM,24.7%
same,IC50,"CDK2/cyclin A2; n = 3, read-out: IC50 against CDK2/cyclin A2",3.82 µM
same,Relative activity,"CDK2/cyclin A2; supplement S1, DMSO = 100, screen at 50 μM",24.7
same,GI50,CCRF-CEM; Homo sapiens,2.63 µM
same,CC50,CCRF-CEM; [3],> 100 µM
same,Percent Growth,CCRF-CEM; Log10 Concentration -4.0 Molar,-31%
same,Percent Growth,CCRF-CEM; Log10 Concentration -5.0 Molar,-5%
same,Percent Growth,CCRF-CEM; Log10 Concentration -6.0 Molar,90%
same,Percent Growth,CCRF-CEM; Log10 Concentration -7.0 Molar,100%
same,Percent Growth,CCRF-CEM; Log10 Concentration -8.0 Molar,98%
same,GI%,HT29 [2],95.46%
